In patent US4504580A, “Antibiotics produced by fermentation of a novel strain of Streptomyces hygroscopicus” (Bristol-Myers Company, priority 1983, dated 1985):
Converted amounts (≈) assume the structure as drawn. Where two headings read alike, the source gives them in different places.

How the values were obtained:
[1] = test system: Bacillus subtilis PCI 219; assay: MIC by serial two-fold agar dilution, B. subtilis PCI 219; format: cell-based; conditions: Mueller-Hinton agar
Method: (§1) The minimum inhibitory concentrations (MIC) of Bu-2659A, B, C, D and E were determined for a variety of gram-positive and gram-negative bacteria by the serial two-fold agar dilution method using the Steer's multi-inoculating apparatus. The inoculum was standardized as a 10^4 dilution of an overnight culture of the test organisms in Heart Infusion Broth (Difco). […] Reference antibiotics utilized in these tests included commercially available neomycin as well as its components, neomycins B and C [as used herein, the term "neomycin" means the commercial product containing neomycins B and C at an approximate ratio of 7:3], paromomycin [the commercial product containing >90% of paromomycin I and <10% of paromomycin II] and ribostamycin.

[2] = test system: Klebsiella pneumoniae D-11; assay: Experimental systemic infection in mice, K. pneumoniae D-11; format: in vivo; conditions: im, single treatment, 4 days
Method: (§2) The in vivo activity of Bu-2659A was assessed by experimental systemic infection in mice. The pathogenic bacteria used in the in vivo tests were E. coli Juhl, K. pneumoniae D-11, P. mirabilis A9906, S. aureus Smith and S. pyogenes A20201. Mice were challenged intraperitoneally with approximately 100×LD50 dose of the pathogens in a 5% suspension of hog gastric mucin (American Laboratories, Omaha, Neb.). A single intramuscular treatment with the antibiotic was given immediately after the bacterial challenge. […] Neomycin was comparatively tested as a reference compound. […] In terms of PD50 value Bu-2659A was about one-half as active as neomycin against infections with S. aureus and S. pyogenes.

[3] = test system: Escherichia coli JR66/W677; assay: MIC, aminoglycoside-resistant E. coli JR66/W677; format: cell-based; conditions: Table 9; inactivating enzymes APH(3')-II, ANT(2"); Mueller-Hinton agar
Method: as §1

[4] = test system: Mycobacterium phlei; assay: MIC by serial two-fold agar dilution, M. phlei; format: cell-based; conditions: Table 8; No. 1001 medium
Method: as §1

[5] = test system: Bacillus brevis IFO 12334; assay: MIC, aminoglycoside-resistant B. brevis IFO 12334; format: cell-based; conditions: Table 9; inactivating enzyme ANT (4'); Mueller-Hinton agar
Method: as §1

[6] = test system: Pseudomonas aeruginosa A20896; assay: MIC, aminoglycoside-resistant P. aeruginosa A20896; format: cell-based; conditions: Table 9; inactivating enzyme AAC(3)-II; Mueller-Hinton agar
Method: as §1

[7] = test system: species of Streptococcus and Mycobacterium; assay: Antibacterial activity (MIC), overall, Streptococcus and Mycobacterium, Table 8; format: cell-based
Method: as §1

[8] = test system: Haemophilus influenzae A9729; assay: MIC by serial two-fold agar dilution, H. influenzae A9729; format: cell-based; conditions: Table 8; GC medium
Method: as §1

[9] = test system: Streptococcus pyogenes A20201; assay: Experimental systemic infection in mice, S. pyogenes A20201; format: in vivo; conditions: im, single treatment, 4 days
Method: as §2

[10] = test system: Escherichia coli NR79/W677; assay: MIC, aminoglycoside-resistant E. coli NR79/W677; format: cell-based; conditions: Table 9; inactivating enzyme AAC(6')-I; Mueller-Hinton agar
Method: as §1

[11] = test system: Neisseria meningitidis A21496; assay: MIC by serial two-fold agar dilution, N. meningitidis A21496; format: cell-based; conditions: Table 8; GC medium
Method: as §1

[12] = test system: Escherichia coli A20732; assay: MIC, aminoglycoside-resistant E. coli A20732; format: cell-based; conditions: Table 9; inactivating enzyme ANT(2"); Mueller-Hinton agar
Method: as §1

[13] = test system: Staphylococcus aureus Smith; assay: MIC by serial two-fold agar dilution, S. aureus Smith; format: cell-based; conditions: Mueller-Hinton agar
Method: as §1

[14] = test system: Pseudomonas aeruginosa A20601; assay: MIC, aminoglycoside-resistant P. aeruginosa A20601; format: cell-based; conditions: Table 9; inactivating enzymes AAC(3)-I, APH(3')-II; Mueller-Hinton agar
Method: as §1

[15] = test system: Micrococcus flavus D12; assay: MIC by serial two-fold agar dilution, M. flavus D12; format: cell-based; conditions: Table 7; Mueller-Hinton agar
Method: as §1

[16] = test system: Escherichia coli JR88; assay: MIC, aminoglycoside-resistant E. coli JR88; format: cell-based
Method: as §1

[17] = test system: Escherichia coli ML 1630; assay: MIC, aminoglycoside-resistant E. coli ML 1630; format: cell-based; conditions: Table 9; inactivating enzyme APH(3')-I; Mueller-Hinton agar
Method: as §1

[18] = test system: Proteus mirabilis A9906; assay: MIC by serial two-fold agar dilution, P. mirabilis A9906; format: cell-based; conditions: Table 7; Mueller-Hinton agar
Method: as §1

[19] = Acute toxicity in mice; format: in vivo; conditions: mice
Method: The acute toxicity of Bu-2659A was determined in mice by intravenous, intraperitoneal and subcutaneous routes. Neomycin also was tested for comparison purposes. […] The toxicity of Bu-2659A was approximately 1/3 that of neomycin in terms of LD50 values, thus presenting a potential clinical advantage for Bu-2659A.

[20] = test system: Escherichia coli Juhl; assay: Experimental systemic infection in mice, E. coli Juhl; format: in vivo; conditions: im, single treatment, 4 days
Method: as §2

[21] = test system: Staphylococcus aureus 209P; assay: MIC by serial two-fold agar dilution, S. aureus 209P; format: cell-based; conditions: Mueller-Hinton agar
Method: as §1

[22] = test system: Streptococcus pneumoniae Type I; assay: MIC by serial two-fold agar dilution, S. pneumoniae Type I; format: cell-based; conditions: Table 8; GC medium
Method: as §1

[23] = test system: Escherichia coli Juhl; assay: MIC by serial two-fold agar dilution, E. coli Juhl; format: cell-based; conditions: Table 7; Mueller-Hinton agar
Method: as §1

[24] = test system: Staphylococcus aureus Smith; assay: Experimental systemic infection in mice, S. aureus Smith; format: in vivo; conditions: im, single treatment, 4 days
Method: as §2

[25] = test system: Proteus mirabilis A9554; assay: MIC by serial two-fold agar dilution, P. mirabilis A9554; format: cell-based; conditions: Mueller-Hinton agar
Method: as §1

[26] = test system: Staphylococcus aureus D136; assay: MIC by serial two-fold agar dilution, S. aureus D136; format: cell-based; conditions: Table 7; Mueller-Hinton agar
Method: as §1

[27] = test system: Escherichia coli A20107; assay: MIC, aminoglycoside-resistant E. coli A20107; format: cell-based; conditions: Table 9; inactivating enzyme APH(3')-II; Mueller-Hinton agar
Method: as §1

[28] = test system: Proteus rettgeri A15167; assay: MIC by serial two-fold agar dilution, P. rettgeri A15167; format: cell-based; conditions: Table 7; Mueller-Hinton agar
Method: as §1

[29] = test system: Mycobacterium smegmatis 607; assay: MIC by serial two-fold agar dilution, M. smegmatis 607; format: cell-based; conditions: Table 8; No. 1001 medium
Method: as §1

[30] = test system: Staphylococcus aureus A20239; assay: MIC, aminoglycoside-resistant S. aureus A20239; format: cell-based; conditions: Table 9; inactivating enzyme APH(3')-I,II; Mueller-Hinton agar
Method: as §1

[31] = test system: Micrococcus luteus PCI 1001; assay: MIC by serial two-fold agar dilution, M. luteus PCI 1001; format: cell-based; conditions: Table 7; Mueller-Hinton agar
Method: as §1

[32] = test system: Escherichia coli NIHJ; assay: MIC by serial two-fold agar dilution, E. coli NIHJ; format: cell-based; conditions: Mueller-Hinton agar
Method: as §1

[33] = test system: Escherichia coli JR35/C600; assay: MIC, aminoglycoside-resistant E. coli JR35/C600; format: cell-based; conditions: Table 9; inactivating enzyme APH(3')-I; Mueller-Hinton agar
Method: as §1

[34] = test system: Pseudomonas aeruginosa A9930; assay: MIC by serial two-fold agar dilution, P. aeruginosa A9930; format: cell-based; conditions: Mueller-Hinton agar
Method: as §1

[35] = test system: Pseudomonas aeruginosa D15; assay: MIC by serial two-fold agar dilution, P. aeruginosa D15; format: cell-based; conditions: Table 7; Mueller-Hinton agar
Method: as §1

[36] = test system: Streptococcus pyogenes A20201; assay: MIC by serial two-fold agar dilution, S. pyogenes A20201; format: cell-based; conditions: Table 8; GC medium
Method: as §1

[37] = test system: Enterobacter cloacae A20364; assay: MIC, aminoglycoside-resistant E. cloacae A20364; format: cell-based; conditions: Table 9; inactivating enzyme APH(3')-I; Mueller-Hinton agar
Method: as §1

[38] = test system: Proteus morganii A9553; assay: MIC by serial two-fold agar dilution, P. morganii A9553; format: cell-based; conditions: Table 7; Mueller-Hinton agar
Method: as §1

[39] = test system: Neisseria gonorrhoeae A20143; assay: MIC by serial two-fold agar dilution, N. gonorrhoeae A20143; format: cell-based; conditions: Table 8; GC medium
Method: as §1

[40] = test system: Serratia marcescens A20019; assay: MIC by serial two-fold agar dilution, S. marcescens A20019; format: cell-based; conditions: Table 7; Mueller-Hinton agar
Method: as §1

[41] = test system: Mycobacterium ranae; assay: MIC by serial two-fold agar dilution, M. ranae; format: cell-based; conditions: Table 8; No. 1001 medium
Method: as §1

[42] = test system: Proteus mirabilis A9906; assay: Experimental systemic infection in mice, P. mirabilis A9906; format: in vivo; conditions: im, single treatment, 4 days
Method: as §2

[43] = test system: Proteus vulgaris A9436; assay: MIC by serial two-fold agar dilution, P. vulgaris A9436; format: cell-based; conditions: Mueller-Hinton agar
Method: as §1

[44] = test system: Klebsiella pneumoniae D11; assay: MIC by serial two-fold agar dilution, K. pneumoniae D11; format: cell-based; conditions: Mueller-Hinton agar
Method: as §1

[45] = test system: bacteria of Table 10; assay: In vitro activity of Bu-2659 DP-I vs neamine, overall, Table 10; format: cell-based
Method: as §1
The in vitro activity of Bu-2659 DP-I (1-deamino-1-hydroxyneamine) is shown in Table 10 along with that of neamine.

## neomycin
[1]; Table 7
  MIC: < 0.05 µg/mL
[2]
  PD50: 0.9 mg/kg
[3]
  MIC: > 100 µg/mL
[4]
  MIC: 0.2 µg/mL
[5]
  MIC: 25 µg/mL
[6]
  MIC: > 100 µg/mL
[7]
  activity against Streptococcus and Mycobacterium, in words: equivalent activity
[8]
  MIC: 400 µg/mL
[9]
  PD50: 50 mg/kg
[10]
  MIC: 50 µg/mL
[11]
  MIC: 400 µg/mL
[12]
  MIC: 0.8 µg/mL
[13]; Table 7
  MIC: 0.8 µg/mL
[14]
  MIC: 12.5 µg/mL
[15]
  MIC: 3.1 µg/mL
[16]; Table 9, inactivating enzyme AAC(3)-I, Mueller-Hinton agar
  MIC: 1.6 µg/mL
[17]
  MIC: > 100 µg/mL
[18]
  MIC: 0.8 µg/mL
[19]; intraperitoneal
  LD50: 180 mg/kg
[19]; intravenous
  LD50: 34 mg/kg
[19]; subcutaneous
  LD50: 280 mg/kg
[20]
  PD50: 3.1 mg/kg
[21]; Table 7
  MIC: 0.4 µg/mL
[22]
  MIC: 25 µg/mL
[23]
  MIC: 3.1 µg/mL
[24]
  PD50: 0.31 mg/kg
[25]; Table 7
  MIC: 0.8 µg/mL
[26]
  MIC: 0.8 µg/mL
[27]
  MIC: 100 µg/mL
[28]
  MIC: 1.6 µg/mL
[29]
  MIC: 0.4 µg/mL
[30]
  MIC: 25 µg/mL
[31]
  MIC: 0.8 µg/mL
[32]; Table 7
  MIC: 1.6 µg/mL
[33]
  MIC: > 100 µg/mL
[34]; Table 7
  MIC: 3.1 µg/mL
[35]
  MIC: 3.1 µg/mL
[36]
  MIC: 12.5 µg/mL
[37]
  MIC: > 100 µg/mL
[38]
  MIC: 3.1 µg/mL
[39]
  MIC: > 400 µg/mL
[40]
  MIC: 1.6 µg/mL
[41]
  MIC: 0.4 µg/mL
[42]
  PD50: 1.8 mg/kg
[43]; Table 7
  MIC: 0.8 µg/mL
[44]; Table 7
  MIC: 0.4 µg/mL

## NC[C@H]1O[C@H](O[C@H]2[C@H](O)[C@@H](O)[C@H](O)C[C@@H]2N)[C@H](N)[C@@H](O)[C@@H]1O [Bu-2659 DP-I, 1-deamino-1-hydroxyneamine]
[1]; Bacillus subtilis, PCI219, Table 10, read-out: MIC
  MIC: 100 µg/mL (≈ 309 µM)
[13]; Staphylococcus aureus, Table 10, read-out: MIC
  MIC: 200 µg/mL (≈ 619 µM)
[16]; Escherichia coli, JR88
  MIC: 200 µg/mL (≈ 619 µM)
[21]; Staphylococcus aureus, 209P, Table 10, read-out: MIC
  MIC: 200 µg/mL (≈ 619 µM)
[25]; Proteus mirabilis, A9554, Table 10, read-out: MIC
  MIC: 800 µg/mL (≈ 2470 µM)
[45]
  in vitro activity compared with neamine, in words: much less active than neamine
[32]; Escherichia coli, Table 10, read-out: MIC
  MIC: 200 µg/mL (≈ 619 µM)
[34]; Pseudomonas aeruginosa, A9930, Table 10, read-out: MIC
  MIC: > 800 µg/mL
[43]; Proteus vulgaris, A9436, Table 10, read-out: MIC
  MIC: 200 µg/mL (≈ 619 µM)
[44]; Klebsiella pneumoniae, D11, Table 10, read-out: MIC
  MIC: 200 µg/mL (≈ 619 µM)
